Experimental data from US6355799B1, “Substituted benzene compounds, process for their preparation, and herbicidal and defoliant compositions containing them” (ISK Americas Incorporated, priority 1997, dated 2002).

How the values were obtained:
Type in all cases: in vivo
[1] = test system: redroot pigweed (Amaranthus retroflexus, AMARE); assay: Pre-emerge test, greenhouse herbicide activity screening; settings: rated 14 days after application, 0 = no damage, 100 = complete death
Summary of the method: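 Rating: 0–100 visual injury, 14 DAA. Application: acetone, 187 l/ha, 15–1000 g ai/ha, flat-fan track sprayer with nozzle 40–45 cm above soil or canopy. Post-emerge runs used 0.25% v/v surfactant on 2–3 leaf plants.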

[2] = test system: barnyardgrass (Echinochloa crus-galli, ECHCG); assay: as above; settings: rated 14 days after application, 0 = no damage, 100 = complete death
Summary of the method: (§1)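 Sandy loam pots; pre-emerge: sown 1 d pre-spray, surface-watered after, then bottom-watered. Post-emerge: sown 8–21 d before, 2–3 leaf stage, + 0.25% v/v NIS, bottom-watered. Acetone, 187 l/ha track spray, 15–1000 g ai/ha. 0–100 injury score, day 14.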

[3] = test system: green foxtail (Setaria viridis, SETVI); assay: as above; settings: rated 14 days after application, 0 = no damage, 100 = complete death
Summary of the method: as §1

[4] = test system: ivyleaf morningglory (Ipomoea hederacea, IPOHE); assay: as above; settings: rated 14 days after application, 0 = no damage, 100 = complete death
Summary of the method: as §1

[5] = test system: johnsongrass (Sorghum halepense, SORHA); assay: as above; settings: rated 14 days after application, 0 = no damage, 100 = complete death
Summary of the method: as §1

[6] = test system: lambsquarters (Chenopodium album, CHEAL); assay: as above; settings: rated 14 days after application, 0 = no damage, 100 = complete death
Summary of the method: as §1

[7] = test system: large crabgrass (Digitaria sanguinalis, DIGSA); assay: as above; settings: rated 14 days after application, 0 = no damage, 100 = complete death
Summary of the method: as §1

[8] = test system: sicklepod (Cassia obtusifolia, CASOB); assay: as above; settings: rated 14 days after application, 0 = no damage, 100 = complete death
Summary of the method: as §1

[9] = test system: velvetleaf (Abutilon theophrasti, ABUTH); assay: as above; settings: rated 14 days after application, 0 = no damage, 100 = complete death
Summary of the method: as §1

[10] = test system: field corn (Zea mays L., var. Dekalb 535, CORN); assay: Pre-emerge test, crop safety; settings: rated 14 days after application, 0 = no damage, 100 = complete death
Summary of the method: (§2)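 Applied at 15–1000 g ai/ha from acetone in 187 l/ha spray volume. Post-emergence applications included 0.25% v/v non-ionic surfactant and reached plants sown 8–21 days before. Pre-emergence applications were incorporated by surface watering. Efficacy or crop damage was rated on a 0–100 scale after 14 days.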

[11] = test system: upland rice (Oryza sp., var. Tebonnet, RICE); assay: Pre-emerge test, crop safety; settings: rated 14 days after application, 0 = no damage, 100 = complete death
Summary of the method: as §2

[12] = test system: barnyardgrass (Echinochloa crus-galli, ECHCG); assay: Post-emerge test, greenhouse herbicide activity screening; settings: post-emerge, 14 days after application, rating scale 0-100
Summary of the method: (§3)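 Compounds in acetone were track-sprayed at 15–1000 g ai/ha: pre-emergence onto soil sown the previous day, then top-watered to incorporate and later bottom-watered; post-emergence onto 2–3 leaf plants with 0.25% v/v surfactant, bottom-watered only. Ratings on a 0–100 phytotoxicity scale were taken at day 14.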

[13] = test system: common ragweed (Ambrosia artemisizfolia L., AMBEL); assay: as above; settings: post-emerge, 14 days after application, rating scale 0-100
Summary of the method: as §3

[14] = test system: green foxtail (Setaria viridis, SETVI); assay: as above; settings: post-emerge, 14 days after application, rating scale 0-100
Summary of the method: as §3

[15] = test system: ivyleaf morningglory (Ipomoea hederacea, IPOHE); assay: as above; settings: post-emerge, 14 days after application, rating scale 0-100
Summary of the method: as §3

[16] = test system: johnsongrass (Sorghum halepense, SORHA); assay: as above; settings: post-emerge, 14 days after application, rating scale 0-100
Summary of the method: as §3

[17] = test system: lambsquarters (Chenopodium album, CHEAL); assay: as above; settings: post-emerge, 14 days after application, rating scale 0-100
Summary of the method: as §3

[18] = test system: large crabgrass (Digitaria sanguinalis, DIGSA); assay: as above; settings: post-emerge, 14 days after application, rating scale 0-100
Summary of the method: as §3

[19] = test system: redroot pigweed (Amaranthus retroflexus, AMARE); assay: as above; settings: post-emerge, 14 days after application, rating scale 0-100
Summary of the method: as §3

[20] = test system: sicklepod (Cassia obtusifolia, CASOB); assay: as above; settings: post-emerge, 14 days after application, rating scale 0-100
Summary of the method: as §3

[21] = test system: velvetleaf (Abutilon theophrasti, ABUTH); assay: as above; settings: post-emerge, 14 days after application, rating scale 0-100
Summary of the method: as §3

[22] = test system: field corn (Zea mays L., var. Dekalb 535, CORN); assay: Post-emerge test, crop safety; settings: post-emerge, 14 days after application, rating scale 0-100
Summary of the method: as §1

[23] = test system: upland rice (Oryza sp., var. Tebonnet, RICE); assay: Post-emerge test, crop safety; settings: post-emerge, 14 days after application, rating scale 0-100
Summary of the method: as §1

SMILES: COc1c(Cl)cc(F)c(-n2c(=O)cc(C(F)(F)F)n(C)c2=O)c1NC(=O)c1ccc2c(c1)OCO2 [2-73]
- Pre-emerge Herbicidal Activity, phytotoxicity rating (0-100), AMARE ([1]; 63 g ai/ha): 100
- Pre-emerge Herbicidal Activity, phytotoxicity rating (0-100), AMARE ([1]; 250 g ai/ha): 100
- Pre-emerge Herbicidal Activity, phytotoxicity rating (0-100), ECHCG ([2]; 63 g ai/ha): 90
- Pre-emerge Herbicidal Activity, phytotoxicity rating (0-100), ECHCG ([2]; 250 g ai/ha): 100
- Pre-emerge Herbicidal Activity, phytotoxicity rating (0-100), SETVI ([3]; 63 g ai/ha): 100
- Pre-emerge Herbicidal Activity, phytotoxicity rating (0-100), SETVI ([3]; 250 g ai/ha): 100
- Pre-emerge Herbicidal Activity, phytotoxicity rating (0-100), IPOHE ([4]; 63 g ai/ha): 90
- Pre-emerge Herbicidal Activity, phytotoxicity rating (0-100), IPOHE ([4]; 250 g ai/ha): 100
- Pre-emerge Herbicidal Activity, phytotoxicity rating (0-100), SORHA ([5]; 63 g ai/ha): 75
- Pre-emerge Herbicidal Activity, phytotoxicity rating (0-100), SORHA ([5]; 250 g ai/ha): 100
- Pre-emerge Herbicidal Activity, phytotoxicity rating (0-100), CHEAL ([6]; 63 g ai/ha): 100
- Pre-emerge Herbicidal Activity, phytotoxicity rating (0-100), CHEAL ([6]; 250 g ai/ha): 100
- Pre-emerge Herbicidal Activity, phytotoxicity rating (0-100), DIGSA ([7]; 63 g ai/ha): 100
- Pre-emerge Herbicidal Activity, phytotoxicity rating (0-100), DIGSA ([7]; 250 g ai/ha): 100
- Pre-emerge Herbicidal Activity, phytotoxicity rating (0-100), CASOB ([8]; 63 g ai/ha): 100
- Pre-emerge Herbicidal Activity, phytotoxicity rating (0-100), CASOB ([8]; 250 g ai/ha): 100
- Pre-emerge Herbicidal Activity, phytotoxicity rating (0-100), ABUTH ([9]; 63 g ai/ha): 100
- Pre-emerge Herbicidal Activity, phytotoxicity rating (0-100), ABUTH ([9]; 250 g ai/ha): 100
- Pre-emerge phytotoxicity rating (0-100), crop damage, CORN ([10]; 63 g ai/ha): 50
- Pre-emerge phytotoxicity rating (0-100), crop damage, CORN ([10]; 250 g ai/ha): 95
- Pre-emerge phytotoxicity rating (0-100), crop damage, RICE ([11]; 63 g ai/ha): 80
- Pre-emerge phytotoxicity rating (0-100), crop damage, RICE ([11]; 250 g ai/ha): 100
- phytotoxicity rating ECHCG ([12]; 63 g ai/ha): 30
- phytotoxicity rating ECHCG ([12]; 250 g ai/ha): 60
- phytotoxicity rating AMBEL ([13]; 63 g ai/ha): 100
- phytotoxicity rating AMBEL ([13]; 250 g ai/ha): 100
- phytotoxicity rating SETVI ([14]; 63 g ai/ha): 50
- phytotoxicity rating SETVI ([14]; 250 g ai/ha): 90
- phytotoxicity rating IPOHE ([15]; 63 g ai/ha): 100
- phytotoxicity rating IPOHE ([15]; 250 g ai/ha): 100
- phytotoxicity rating SORHA ([16]; 63 g ai/ha): 10
- phytotoxicity rating SORHA ([16]; 250 g ai/ha): 50
- phytotoxicity rating CHEAL ([17]; 63 g ai/ha): 70
- phytotoxicity rating CHEAL ([17]; 250 g ai/ha): 95
- phytotoxicity rating DIGSA ([18]; 63 g ai/ha): 30
- phytotoxicity rating DIGSA ([18]; 250 g ai/ha): 30
- phytotoxicity rating AMARE ([19]; 63 g ai/ha): 100
- phytotoxicity rating AMARE ([19]; 250 g ai/ha): 100
- phytotoxicity rating CASOB ([20]; 63 g ai/ha): 60
- phytotoxicity rating CASOB ([20]; 250 g ai/ha): 100
- phytotoxicity rating ABUTH ([21]; 63 g ai/ha): 100
- phytotoxicity rating ABUTH ([21]; 250 g ai/ha): 100
- phytotoxicity rating CORN ([22]; 63 g ai/ha): 25
- phytotoxicity rating CORN ([22]; 250 g ai/ha): 50
- phytotoxicity rating RICE ([23]; 63 g ai/ha): 20
- phytotoxicity rating RICE ([23]; 250 g ai/ha): 70

SMILES: COc1c(Cl)cc(F)c(-n2c(=O)cc(C(F)(F)F)n(C)c2=O)c1NC(=O)c1cccc2ccccc12 [2-74]
- Pre-emerge Herbicidal Activity, phytotoxicity rating (0-100), AMARE ([1]; 63 g ai/ha): 100
- Pre-emerge Herbicidal Activity, phytotoxicity rating (0-100), AMARE ([1]; 250 g ai/ha): 100
- Pre-emerge Herbicidal Activity, phytotoxicity rating (0-100), ECHCG ([2]; 63 g ai/ha): 0
- Pre-emerge Herbicidal Activity, phytotoxicity rating (0-100), ECHCG ([2]; 250 g ai/ha): 100
- Pre-emerge Herbicidal Activity, phytotoxicity rating (0-100), SETVI ([3]; 63 g ai/ha): 70
- Pre-emerge Herbicidal Activity, phytotoxicity rating (0-100), SETVI ([3]; 250 g ai/ha): 100
- Pre-emerge Herbicidal Activity, phytotoxicity rating (0-100), IPOHE ([4]; 63 g ai/ha): 0
- Pre-emerge Herbicidal Activity, phytotoxicity rating (0-100), IPOHE ([4]; 250 g ai/ha): 50
- Pre-emerge Herbicidal Activity, phytotoxicity rating (0-100), SORHA ([5]; 63 g ai/ha): 0
- Pre-emerge Herbicidal Activity, phytotoxicity rating (0-100), SORHA ([5]; 250 g ai/ha): 100
- Pre-emerge Herbicidal Activity, phytotoxicity rating (0-100), CHEAL ([6]; 63 g ai/ha): 100
- Pre-emerge Herbicidal Activity, phytotoxicity rating (0-100), CHEAL ([6]; 250 g ai/ha): 100
- Pre-emerge Herbicidal Activity, phytotoxicity rating (0-100), DIGSA ([7]; 63 g ai/ha): 20
- Pre-emerge Herbicidal Activity, phytotoxicity rating (0-100), DIGSA ([7]; 250 g ai/ha): 100
- Pre-emerge Herbicidal Activity, phytotoxicity rating (0-100), CASOB ([8]; 63 g ai/ha): 40
- Pre-emerge Herbicidal Activity, phytotoxicity rating (0-100), CASOB ([8]; 250 g ai/ha): 70
- Pre-emerge Herbicidal Activity, phytotoxicity rating (0-100), ABUTH ([9]; 63 g ai/ha): 100
- Pre-emerge Herbicidal Activity, phytotoxicity rating (0-100), ABUTH ([9]; 250 g ai/ha): 100
- Pre-emerge phytotoxicity rating (0-100), crop damage, CORN ([10]; 63 g ai/ha): 0
- Pre-emerge phytotoxicity rating (0-100), crop damage, CORN ([10]; 250 g ai/ha): 15
- Pre-emerge phytotoxicity rating (0-100), crop damage, RICE ([11]; 63 g ai/ha): 30
- Pre-emerge phytotoxicity rating (0-100), crop damage, RICE ([11]; 250 g ai/ha): 60
- phytotoxicity rating ECHCG ([12]; 63 g ai/ha): 0
- phytotoxicity rating ECHCG ([12]; 250 g ai/ha): 0
- phytotoxicity rating AMBEL ([13]; 63 g ai/ha): 70
- phytotoxicity rating AMBEL ([13]; 250 g ai/ha): 95
- phytotoxicity rating SETVI ([14]; 63 g ai/ha): 0
- phytotoxicity rating SETVI ([14]; 250 g ai/ha): 20
- phytotoxicity rating IPOHE ([15]; 63 g ai/ha): 60
- phytotoxicity rating IPOHE ([15]; 250 g ai/ha): 60
- phytotoxicity rating SORHA ([16]; 63 g ai/ha): 0
- phytotoxicity rating SORHA ([16]; 250 g ai/ha): 0
- phytotoxicity rating CHEAL ([17]; 63 g ai/ha): 70
- phytotoxicity rating CHEAL ([17]; 250 g ai/ha): 70
- phytotoxicity rating DIGSA ([18]; 63 g ai/ha): 0
- phytotoxicity rating DIGSA ([18]; 250 g ai/ha): 0
- phytotoxicity rating AMARE ([19]; 63 g ai/ha): 95
- phytotoxicity rating AMARE ([19]; 250 g ai/ha): 100
- phytotoxicity rating CASOB ([20]; 63 g ai/ha): 30
- phytotoxicity rating CASOB ([20]; 250 g ai/ha): 70
- phytotoxicity rating ABUTH ([21]; 63 g ai/ha): 100
- phytotoxicity rating ABUTH ([21]; 250 g ai/ha): 100
- phytotoxicity rating CORN ([22]; 63 g ai/ha): 0
- phytotoxicity rating CORN ([22]; 250 g ai/ha): 15
- phytotoxicity rating RICE ([23]; 63 g ai/ha): 25
- phytotoxicity rating RICE ([23]; 250 g ai/ha): 50
